Data published in US6352982B1, “4,1-benzoxazepines, their analogues, and their use as somatostatin agonists” (Takeda Chemical Industries, Ltd., priority 1997, dated 2002).
Where a name gives a salt, the structure may show the parent alone.

Tested on: SD rats
Test: Insulin secretion inhibition study using SD rats
Assay type: in vivo, rat
Experimental: In order to study the inhibitory effect of the compound of Example 5 on the insulin secretion after the stimulation by glucose, blood was withdrawn at various time intervals after the simultaneous intravenous administration of the compound of Example 5 and glucose. Serum insulin concentrations were determined by RIA.
Male rats of SD strain (8 weeks of age, n=3) were weighed and anesthetized by the intraperitoneal administration of 50 mg/kg of pentobarbital. As blood clotting inhibitor 30 mg of EDTA was dissolved in 300 μl of 50,000 units/ml Trasylol (Bayer) solution, and the solution was placed into Eppendorf blood collecting tubes each in quantity of […]. After fixing the rat on the rat fixing apparatus, the unilateral jugular vein was exposed and 100 μl of the blood was withdrawn from the vein by using a 25G injection needle. The test solution for the control group [without glucose] was saline containing 5% propylene glycol and 30% hydroxypropyl-β-cyclodextrin. The test solution for the control group [with glucose] was saline containing 5% propylene glycol, 30% hydroxypropyl-β-cyclodextrin, and 300 mg/kg/ml of glucose. […]
Plasma insulin concentrations were determined by RIA using the rat insulin [125I] assay system (Amersham). […] The radioactivity of the sediment was measured by gamma counter. […]

NCc1cccc(C2OC(CC(=O)NCc3ccccc3F)C(=O)N(Cc3ccc(-c4ccccc4)cc3)c3ccc(Cl)cc32)c1 (stereo not drawn) [Example 5, 3,5-Trans-N-(2-fluorobenzyl)-5-(3-aminomethylphenyl)-1-(4-biphenylmethyl)-7-chloro-2-oxo-1,2,3,5-tetrahydro-4,1-benzoxazepine-3-acetamide•monohydrochloride]
Elevation of the plasma insulin concentration after glucose (intravenous 0.003, 0.03, 0.3 or 3 mg/kg with glucose, male SD rats): dose-dependently inhibited
Dosage which inhibited the elevation of insulin concentration by 50% (simultaneous intravenous administration with glucose, anesthetized male SD rats): about 0.03 mg/kg
